Assay results: patent US9145402B2, “Aminopyrimidine derivatives as LRRK2 modulators” (Genentech, Inc., priority 2011, dated 2015)
pKi: −log10 of the molar value.

molecular target: LRRK2 (Homo sapiens (Human), UniProt Q5S007, G2019S); experiment: In Vitro LRRK2 LabChip Assay (LRRK2 Ki); type: biochemical
Experimental: In Vitro LRRK2 LabChip Assay
This assay was used to determine a compound's potency in inhibiting activity of LRRK2 by determining, Kiapp, IC50, or percent inhibition values. In a polypropylene plate, LRRK2, fluorescently-labeled peptide substrate, ATP and test compound were incubated together. Using a LabChip 3000 (Caliper Life Sciences), after the reaction the substrate was separated by capillary electrophoresis into two populations: phosphorylated and unphosphorylated. The relative amounts of each were quantitated by fluorescence intensity. LRRK2 Ki was determined according to the equation: Y=V0*(1−((x+Ki*(1+S/Km)+Et)/(2*Et)−(((x+Ki*(1+S/Km)+Et)^2−(4*Et*x))^0.5)/(2*Et))). Ki values in Table 4 and elsewhere herein are shown in μM.
Assay conditions and materials used were as follows:
Kinase reaction time: 2 hours
Wild type in 5 mM MgCl2: 80 μM
Solid Support: Black 50 μL volume polypropylene 384 well plate (MatriCal cat #MP101-1-PP)
Non-binding plate: 384 well clear V-bottom polypropylene plates (Greiner cat #781280).
ATP: 10 mM ATP (Cell Signaling cat #9804).
Coating Reagent #3: Coating Reagent #3 (Caliper).
Complete Reaction Buffer: H2O/25 mM Tris, pH 8.0/5 mM MgCl2/2 mM DTT/0.01% Triton X-100.
Stop Solution: H2O/100 mM HEPES, pH 7.2/0.015% Brij-35/0.2% Coating Reagent #3/20 mM EDTA.
Separation Buffer: H2O/100 mM HEPES, pH 7.2/0.015% Brij-35/0.1% Coating Reagent #3/1:200 Coating Reagent #8/10 mM EDTA/5% DMSO.
Compound Plate Preparation:
For serial dilutions, 34.6 μl DMSO was added to columns 3-24. For the assay controls, 37.5 μl DMSO was added to columns 1 and 2 of rows A and P. a,d and 50 μl 25 μM G-028831 (Staurosporine) was added to columns 1 and 2, row B. For the samples: to start at 100 μM, 37.5 μl DMSO was to columns 1 and 2, then 12.5 μl 10 mM compound; to start at 10 μM, 78 μl DMSO was added to columns 1 & 2, then 2 μl 10 mM compound; and to start at 1 μM, 25 μM compound (2 μl 10 mM cmpd+798 μl DMSO) was added to empty columns 1 and 2. A Precision instrument was used to perform 1:3.16 serial dilutions (“PLK_BM_serial_halflog”).
ATP was diluted to 282.1 μM in Complete Kinase Buffer (final concentration was 130 μM).
Total and Blank Preparation:
In Complete Reaction Buffer, substrate was diluted to 4 μM. Equal volumes of Complete Reaction Buffer and 4 μM substrate were combined to obtain the blank. Equal volumes of Complete Reaction Buffer and 4 μM substrate were combined and to the combined solution was added 2× final LRRK2 concentration.
To a 50 μl polypropylene plate, 5 μl/well buffer/substrate was added by hand to Blank wells. A Biomek FX was used to start the kinase reaction (“PLK SAR 23 ATP”). The following were added to the appropriate wells:
5 μl/well compound/ATP in Assay Plate;
5 μl/well kinase/substrate in Assay Plate;
The plate was incubated for 2 hours in the dark. Biomek FX was used to stop the kinase reaction (“PLK Stop”), and 10 μl/well Stop solution was added to the Assay Plate. Results were read on the LabChip 3000.
The LabChip 3000 was run using the job “LRRK2 IC50” with the following job settings:
Downstream voltage: −500 V
Upstream voltage: −2350 V
Post sample buffer sip time: 75 seconds
Post dye buffer sip time: 75 seconds
Final delay time: 200 seconds

LRRK2, sequence (Q5S007 970-2527 G2019S): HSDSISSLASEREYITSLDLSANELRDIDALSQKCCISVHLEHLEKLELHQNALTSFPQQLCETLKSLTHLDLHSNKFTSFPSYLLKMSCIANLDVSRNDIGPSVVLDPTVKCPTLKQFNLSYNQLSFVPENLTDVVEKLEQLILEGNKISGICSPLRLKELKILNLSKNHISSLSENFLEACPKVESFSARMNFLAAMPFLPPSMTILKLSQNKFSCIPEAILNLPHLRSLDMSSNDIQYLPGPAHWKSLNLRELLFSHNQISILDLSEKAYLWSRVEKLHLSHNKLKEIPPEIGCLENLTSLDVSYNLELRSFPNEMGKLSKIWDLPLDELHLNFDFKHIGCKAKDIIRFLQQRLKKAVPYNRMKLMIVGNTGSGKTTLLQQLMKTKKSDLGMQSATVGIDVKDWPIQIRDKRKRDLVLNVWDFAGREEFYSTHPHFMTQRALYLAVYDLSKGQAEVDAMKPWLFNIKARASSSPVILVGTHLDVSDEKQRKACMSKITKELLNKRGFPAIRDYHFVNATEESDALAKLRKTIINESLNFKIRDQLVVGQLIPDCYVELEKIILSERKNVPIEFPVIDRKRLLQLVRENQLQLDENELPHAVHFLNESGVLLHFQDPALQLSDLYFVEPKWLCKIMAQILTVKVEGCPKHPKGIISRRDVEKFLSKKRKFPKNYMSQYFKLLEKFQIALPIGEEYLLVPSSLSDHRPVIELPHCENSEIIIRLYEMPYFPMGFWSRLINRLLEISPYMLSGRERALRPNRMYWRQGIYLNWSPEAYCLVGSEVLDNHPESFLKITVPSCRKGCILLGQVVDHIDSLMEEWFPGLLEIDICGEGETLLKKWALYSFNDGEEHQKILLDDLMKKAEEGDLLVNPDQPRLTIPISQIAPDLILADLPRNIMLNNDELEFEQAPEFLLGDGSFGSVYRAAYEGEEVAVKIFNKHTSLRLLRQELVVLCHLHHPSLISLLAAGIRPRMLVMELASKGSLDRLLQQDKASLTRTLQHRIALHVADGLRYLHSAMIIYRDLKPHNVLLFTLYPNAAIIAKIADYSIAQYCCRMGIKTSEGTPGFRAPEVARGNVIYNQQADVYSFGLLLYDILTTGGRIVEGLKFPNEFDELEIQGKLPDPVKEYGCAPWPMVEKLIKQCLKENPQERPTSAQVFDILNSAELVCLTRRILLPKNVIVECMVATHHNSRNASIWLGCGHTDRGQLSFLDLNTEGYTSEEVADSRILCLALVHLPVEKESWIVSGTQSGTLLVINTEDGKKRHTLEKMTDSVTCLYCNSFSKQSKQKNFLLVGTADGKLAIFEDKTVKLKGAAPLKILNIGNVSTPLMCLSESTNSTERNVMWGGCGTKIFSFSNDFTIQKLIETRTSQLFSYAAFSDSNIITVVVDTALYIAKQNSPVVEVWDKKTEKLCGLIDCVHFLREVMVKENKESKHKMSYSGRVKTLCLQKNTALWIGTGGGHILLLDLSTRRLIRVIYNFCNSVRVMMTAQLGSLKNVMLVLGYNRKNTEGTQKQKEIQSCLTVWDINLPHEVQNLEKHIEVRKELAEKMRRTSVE

| pKi | SMILES |
| --- | --- |
| 8.26 | CNc1nc(Nc2cc(F)c(N3CCCCC3=O)cc2OC)ncc1C(F)(F)F [Example 32, 1-(2-fluoro-5-methoxy-4-(4-(methylamino)-5-(trifluoromethyl)pyrimidin-2-ylamino)phenyl)piperidin-2-one] |
| 7.21 | COc1nc(Nc2ccc(S(C)(=O)=O)cc2Cl)ncc1Cl [Example 6, (2-Chloro-4-methanesulfonyl-phenyl)-(5-chloro-4-methoxy-pyrimidin-2-yl)-amine] |

More lines, now with the values behind:

| SMILES | pKi |
| --- | --- |
| COc1nc(Nc2ccc(S(C)(=O)=O)cc2OCCF)ncc1Cl [Example 18, (5-Chloro-4-methoxy-pyrimidin-2-yl)-[2-(2-fluoro-ethoxy)-4-methanesulfonyl-phenyl]-amine] | 7.92 |
| CCNc1nc(Nc2cc(C)c(S(C)(=O)=O)cc2OC)ncc1C(F)(F)F [Example 34, N4-ethyl-N2-(2-methoxy-5-methyl-4-(methylsulfonyl)phenyl)-5-(trifluoromethyl)pyrimidine-2,4-diamine] | 8.52 |
| CNc1nc(Nc2ccc(C#N)cc2OC)ncc1Cl [Example 5, 4-(5-Chloro-4-(methylamino)pyrimidin-2-ylamino)-3-methoxybenzonitrile] | 8.10 |
| CNc1nc(Nc2ccc(S(=O)(=O)N3CCOCC3)cc2OC)ncc1C(F)(F)F [Example 26, N2-(2-methoxy-4-(morpholinosulfonyl)phenyl)-N4-methyl-5-(trifluoromethyl)pyrimidine-2,4-diamine] | 7.33 |
